The subject of assay [1] is Staphylococcus aureus V41. The assay is described as follows: MIC, standard agar-dilution assay, Staphylococcus aureus V41. In kind it is cell-based.
Assay [2] deals with Streptococcus pyogenes C203. The assay is described as follows: MIC, standard agar-dilution assay, Streptococcus pyogenes C203. It counts as cell-based.
The next assay deals with Streptococcus Group 9960. The assay is described as follows: MIC, standard agar-dilution assay, Streptococcus Group 9960. It counts as cell-based. The following applies: Streptococcus Group 9960, agar dilution.
Assay [3] concerns Staphylococcus aureus S13E. The assay is described as follows: MIC, standard agar-dilution assay, Staphylococcus aureus S13E. In kind it is cell-based.
For assay [4], the system named is Staphylococcus aureus X1.1. Description: MIC, standard agar-dilution assay, Staphylococcus aureus X1.1. In kind it is cell-based.
Assay [5] concerns Haemophilus influenzae R252. The assay is described as follows: MIC, standard agar-dilution assay, Haemophilus influenzae R252. It counts as cell-based.
The test system of assay [6] is Staphylococcus epidermidis EPI2. The assay is described as follows: MIC, standard agar-dilution assay, Staphylococcus epidermidis EPI2. In kind it is cell-based.
Assay [7] deals with Streptococcus Group D X66. Description: MIC, standard agar-dilution assay, Streptococcus Group D X66. In kind it is cell-based. The following applies: Streptococcus Group D X66, agar dilution.
Assay [8] concerns Staphylococcus epidermidis EPI1. The assay is described as follows: MIC, standard agar-dilution assay, Staphylococcus epidermidis EPI1. It counts as cell-based.
Assay [9] relates to Staphylococcus aureus X400. The assay is described as follows: MIC, standard agar-dilution assay, Staphylococcus aureus X400. It counts as cell-based.
The subject of assay [10] is Streptococcus pneumoniae Park I. The assay is described as follows: microbe, parasite or virus in culture. In kind it is cell-based.
Assay [11] has as its system Haemophilus influenzae Holt. The assay is described as follows: MIC, standard agar-dilution assay, Haemophilus influenzae Holt. In kind it is cell-based.
In the next assay the test system is Mycoplasma hyorhinis. Description: MIC, broth-dilution microtiter test, Mycoplasma hyorhinis. In kind it is cell-based. An excerpt: (§1) The MIC's in Table X were obtained using conventional broth-dilution microtiter tests.
For a further assay, the system named is Mycoplasma gallisepticum. The assay is described as follows: MIC, broth-dilution microtiter test, Mycoplasma gallisepticum. It counts as cell-based.
From the text: as §1

Another assay has as its system Streptococcus bovis 80. The assay is described as follows: MIC, broth-dilution microtiter test, Streptococcus bovis 80. It counts as cell-based. The following applies: Streptococcus bovis 80, broth-dilution microtiter.
From the text: as §1

For assay [12], the system named is Pasteurella multocida 17E. The assay is described as follows: MIC, broth-dilution microtiter test, Pasteurella multocida 17E. The following applies: Pasteurella multocida 17E, bovine isolate, broth-dilution microtiter. It counts as cell-based.
From the text: as §1

Assay [13] deals with Pasteurella hemolytica 22C. Description: MIC, broth-dilution microtiter test, Pasteurella hemolytica 22C. It counts as cell-based. The following applies: Pasteurella hemolytica 22C, broth-dilution microtiter.
From the text: as §1

Assay [14] relates to Pasteurella multocida 60A. Description: MIC, broth-dilution microtiter test, Pasteurella multocida 60A. Particulars: Pasteurella multocida 60A, avian isolate, broth-dilution microtiter. It counts as cell-based.
From the text: as §1

Another assay deals with Staphylococcus aureus. Description: MIC, broth-dilution microtiter test, Staphylococcus aureus. It counts as cell-based.
From the text: as §1

Assay [15] deals with Streptococcus pyogenes C203. Description: In vivo protection of mice experimentally infected with S. pyogenes C203. The following applies: mice, doses given 1 and 4 hours post-infection. As to the method: The C-20 modified derivatives of this invention have shown in vivo antimicrobial activity against experimentally-induced infections in laboratory animals. When two doses of test compound were administered to mice experimentally infected with S. pyogenes C203, the activity observed was measured as an ED50 value [effective dose in mg/kg to protect 50% of the test animals: see Warren Wick, et al., J. Bacteriol. 81, 233-235 (1961)].

Setting [16] is: Haemophilus influenzae R252, ampicillin-resistant strain, read-out: MIC.
Where [17] appears, read: Staphylococcus epidermidis, EPI1.
Where [18] appears, read: Streptococcus pneumoniae Park I, agar dilution, read-out: MIC.
Setting [19] is: Haemophilus influenzae Holt, ampicillin-sensitive strain, read-out: MIC.
[20] abbreviates: Staphylococcus epidermidis, EPI2.
Where [21] appears, read: Streptococcus equinus, read-out: MIC.

Values after ≈ are worked out from the molar mass of the structure shown. Read-outs that look alike come from different tables or passages of the source. A value given as a limit tells only on which side of the number the result lay.

For the compound `CCC1OC(=O)CC(O)C(C)C(OC2OC(C)C(OC3CC(C)(O)C(O)C(C)O3)C(N(C)C)C2O)C(CCOc2ccc(-c3ccccc3)cc2)CC(C)C(=O)C=CC(C)=CC1COC1OC(C)C(O)C(OC)C1OC` (stereo not shown) [Compound 18, 20-DH-20-O-(p-Phenylphenyl)tylosin], the MIC was 2 µg/mL (≈ 1.87 µM) in assay [1] (Staphylococcus aureus, V41); 2 µg/mL (≈ 1.87 µM) in assay [2] (Streptococcus pyogenes C203, agar dilution, read-out: MIC); more than 128 µg/mL with Streptococcus Group 9960 (GROUP9960, read-out: MIC); 2 µg/mL (≈ 1.87 µM) in assay [3] (Staphylococcus aureus, S13E); 2 µg/mL (≈ 1.87 µM) in assay [4] (Staphylococcus aureus, X1.1); more than 128 µg/mL in assay [5] (setting [16]). Also, the MIC in assay [6] (Staphylococcus epidermidis EPI2, agar dilution, read-out: MIC) is 0.5 µg/mL (≈ 0.467 µM); in assay [7] (read-out: MIC) it was 8 µg/mL (≈ 7.47 µM); in assay [8] (setting [17]), 2 µg/mL (≈ 1.87 µM); in [9] (Staphylococcus aureus, X400) it was 2 µg/mL (≈ 1.87 µM); in [10] (setting [18]) it was 1 µg/mL (≈ 0.934 µM); in [11] (setting [19]) it was more than 128 µg/mL.
`CCC1OC(=O)CC(O)C(C)C(OC2OC(C)C(OC3CC(C)(O)C(O)C(C)O3)C(N(C)C)C2O)C(CCI)CC(C)C(=O)C=CC(C)=CC1COC1OC(C)C(O)C(O)C1OC` (stereo not shown) [Compound 52, 20-DH-DO-20-Iodomacrocin]: the MIC was 2 µg/mL (≈ 1.97 µM) in [1] (Staphylococcus aureus, V41); 4 µg/mL (≈ 3.94 µM) in assay [2] (Streptococcus pyogenes, C203); 128 µg/mL (≈ 126 µM) in the assay with Streptococcus Group 9960 (GROUP9960, read-out: MIC); 4 µg/mL (≈ 3.94 µM) in [3] (Staphylococcus aureus, S13E); 2 µg/mL (≈ 1.97 µM) in assay [4] (Staphylococcus aureus, X1.1); more than 128 µg/mL in [5] (setting [16]). The MIC in assay [6] (setting [20]) came out at 2 µg/mL (≈ 1.97 µM); against Mycoplasma hyorhinis (Mycoplasma) it was 50 µg/mL (≈ 49.3 µM); in [7] (read-out: MIC), 128 µg/mL (≈ 126 µM); against Mycoplasma gallisepticum (Mycoplasmoides gallisepticum) it was 3.12 µg/mL (≈ 3.08 µM); in the assay on Streptococcus bovis 80 (setting [21]), 50 µg/mL (≈ 49.3 µM); in [8] (setting [17]), 2 µg/mL (≈ 1.97 µM). Further, the MIC in [9] (Staphylococcus aureus, X400) is 8 µg/mL (≈ 7.89 µM); in assay [12] (read-out: MIC), more than 50 µg/mL; in assay [10] (setting [18]), 16 µg/mL (≈ 15.8 µM); in assay [13] (read-out: MIC), more than 50 µg/mL; in [14] (read-out: MIC), more than 50 µg/mL; in assay [11] (setting [19]), more than 128 µg/mL. This compound displayed an MIC against Staphylococcus aureus of 12.5 µg/mL (≈ 12.3 µM).
For the compound `CCC1OC(=O)CC(O)C(C)C(OC2OC(C)C(OC3CC(C)(O)C(O)C(C)O3)C(N(C)C)C2O)C(CCNC(=O)Cc2ccccc2)CC(C)C(=O)C=CC(C)=CC1COC1OC(C)C(O)C(OC)C1OC` (stereo not shown) [Compound 3, 20-DH-DO-20-[N-(Phenylacetyl)amino]tylosin], the MIC in [1] (Staphylococcus aureus, V41) was 1 µg/mL (≈ 0.966 µM); in [2] (Streptococcus pyogenes, C203) it was 2 µg/mL (≈ 1.93 µM); with Streptococcus Group 9960 (GROUP9960, read-out: MIC), 64 µg/mL (≈ 61.8 µM); in assay [3] (Staphylococcus aureus, S13E), 0.5 µg/mL (≈ 0.483 µM); in assay [4] (Staphylococcus aureus, X1.1), 1 µg/mL (≈ 0.966 µM); in assay [5] (Haemophilus influenzae, R252), 64 µg/mL (≈ 61.8 µM). For the same compound, the MIC in assay [6] (setting [20]) was 0.5 µg/mL (≈ 0.483 µM); in the assay with Mycoplasma hyorhinis (Mycoplasma), 12.5 µg/mL (≈ 12.1 µM); in assay [7] (read-out: MIC) it was 64 µg/mL (≈ 61.8 µM); against Mycoplasma gallisepticum (Mycoplasmoides gallisepticum), 0.78 µg/mL (≈ 0.753 µM); in the assay on Streptococcus bovis 80 (setting [21]), 6.25 µg/mL (≈ 6.04 µM); in assay [8] (setting [17]), 0.5 µg/mL (≈ 0.483 µM). In addition, the MIC was 2 µg/mL (≈ 1.93 µM) in assay [9] (Staphylococcus aureus, X400); more than 50 µg/mL in assay [12] (read-out: MIC); 1 µg/mL (≈ 0.966 µM) in [10] (Streptococcus pneumoniae); more than 50 µg/mL in [13] (read-out: MIC); more than 50 µg/mL in [14] (read-out: MIC); 128 µg/mL (≈ 124 µM) in assay [11] (Haemophilus influenzae). This compound also gave an MIC against Staphylococcus aureus of 1.56 µg/mL (≈ 1.51 µM).
On to `CCC(=O)OC1C(OC2C(CCN3C(=O)c4ccccc4C3=O)CC(C)C(=O)C=CC(C)=CC(COC3OC(C)C(O)C(OC)C3OC)C(CC)OC(=O)CC(O)C2C)OC(C)C(OC2CC(C)(O)C(O)C(C)O2)C1N(C)C` (stereo not shown) [Compound 62, 20-DH-DO-20-N-Phthalimido-2'-O-propionyltylosin], for which the MIC in assay [1] (Staphylococcus aureus V41, penicillin-resistant strain, agar dilution) was 1 µg/mL (≈ 0.906 µM); with Streptococcus Group 9960, “-- (Not active at 128 mcg/ml, the highest level tested)”; in assay [3] (Staphylococcus aureus S13E, agar dilution), 1 µg/mL (≈ 0.906 µM); in [4] (Staphylococcus aureus X1.1, agar dilution), 1 µg/mL (≈ 0.906 µM); in [5] (Haemophilus influenzae R252, ampicillin-resistant strain, agar dilution) it was “-- (Not active at 128 mcg/ml, the highest level tested)”; in [6] (Staphylococcus epidermidis EPI2, agar dilution), 1 µg/mL (≈ 0.906 µM). The MIC against Mycoplasma hyorhinis (Mycoplasma hyorhinis, broth-dilution microtiter) was 50 µg/mL (≈ 45.3 µM); in assay [7] it was “-- (Not active at 128 mcg/ml, the highest level tested)”; in the assay with Mycoplasma gallisepticum (Mycoplasma gallisepticum, broth-dilution microtiter), 1.56 µg/mL (≈ 1.41 µM); against Streptococcus bovis 80, 12.5 µg/mL (≈ 11.3 µM); in assay [8] (Staphylococcus epidermidis EPI1, agar dilution), 1 µg/mL (≈ 0.906 µM); in assay [9] (Staphylococcus aureus X400, methicillin-resistant strain, agar dilution), 2 µg/mL (≈ 1.81 µM). The MIC result is “-- (Not active at 50 mcg/ml, the highest level tested)” in assay [12]; 2 µg/mL (≈ 1.81 µM) in assay [10] (Streptococcus pneumoniae Park I, agar dilution); “-- (Not active at 50 mcg/ml, the highest level tested)” in assay [13]; “-- (Not active at 50 mcg/ml, the highest level tested)” in [14]; “-- (Not active at 128 mcg/ml, the highest level tested)” in assay [11] (Haemophilus influenzae Holt, ampicillin-sensitive strain, agar dilution); 3.12 µg/mL (≈ 2.83 µM) in the assay with Staphylococcus aureus (broth-dilution microtiter). Moreover, the “ED50, Oral” value in assay [15] (oral) was found to be 66 mg/kg × 2. The “ED50, Subcutaneous” value in assay [15] (subcutaneous) was more than 6.3 mg/kg × 2.

Source of the values: US4443436A, “C-20-Modified macrolide derivatives of the macrolide antibiotics tylosin, desmycosin, macrocin, and lactenocin” (Eli Lilly and Company, priority 1982, dated 1984).
